Experiments:
PC-3 cells [1] = test: Morphological assessment of cell apoptosis, Hoechst 33342 staining; format: cell-based, human; conditions: PC-3, 24 h exposure, fluorescence microscope
Procedure: (§1) Nuclear changes in PC-3, MCF-7 and CoN cells were observed under a fluorescence microscope (200×, Figure 4).
(§2) Briefly, on 24-well chamber slides, 1 × 10^4 cells/mL were cultured and exposed to compounds for 24 h. The control group was also exposed to 1% ethanol. The cells were washed twice with phosphate buffer solution, fixed with 3.7% formaldehyde, and washed again with phosphate buffer solution. Following the addition of 1 μM Hoechst 33342 (Sigma-Aldrich, Santiago, Chile), they were reacted in a dark room at room temperature for 30 min. After washing, they were examined under an immunofluorescence microscope (IX 81 model inverted microscope, Olympus, Santiago, Chile).

MCF-7 cells [2] = test: as above; format: cell-based, human; conditions: MCF-7, 24 h exposure, fluorescence microscope
Procedure: as §1, §2

CoN cells [3] = test: as above; format: cell-based, human; conditions: 24 h exposure, fluorescence microscope
Procedure: as §1, §2

PC-3 cells [4] = test: Mitochondrial membrane permeability, rhodamine 123 flow cytometry; format: cell-based, human; conditions: control treated cells assigned 100%
Description: (§3) Mitochondria play a crucial role in the apoptotic cascade by serving as a convergent center of apoptotic signals originating from both the extrinsic and intrinsic pathways. Changes induced in the mitochondrial membrane potential (MMP) have been reported previously to represent a determinant in the execution of cell death. As polygodial has been described as an inhibitor of mitochondrial ATPase and also as nonionic surfactant. This effect may be determinant in cell death, we has analyzed the effect of compounds 1, 8 and 12 on the mitochondrial membrane potential using flow cytometry with rhodamine 123 stain [24]. […] Similar differences were observed after treatments with compounds 1 and 8 at 100 μM.
(§4) Rhodamine 123, a cationic, voltage-sensitive probe that reversibly accumulates in mitochondria, was used to detect changes in transmembrane mitochondrial membrane potentials. Cells were labelled with 1 μM rhodamine 123 at 37 °C in cell medium for 60 min before terminating the experiment. Cells were detached from the plate, after washing with ice cold PBS, and the samples were analyzed by flow cytometry. Data are expressed in percentage of cells with rhodamine 123 [24].

MCF-7 cells [5] = test: as above; format: cell-based, human; conditions: control treated cells assigned 100%
Description: as §3, §4

CoN cells [6] = test: as above; format: cell-based, human; conditions: control treated cells assigned 100%
Description: as §3, §4

PC-3 cells [7] = test: Morphological changes, phase contrast microscope; format: cell-based, human; conditions: PC-3, 50 μM compound for 24 h
Procedure: (§5) First, the appearance of morphological changes in the cells treated with 50 μM compound for 24 h was analyzed.

MCF-7 cells [8] = test: Morphological changes, phase contrast microscope; format: cell-based, human; conditions: MCF-7, 50 μM compound for 24 h
Procedure: as §5

CoN cells [9] = test: Morphological changes, phase contrast microscope; format: cell-based, human; conditions: 50 μM compound for 24 h
Procedure: as §5

[10] = tested on: panel of cancer cell lines; test: Cytotoxicity against a panel of cancer cell lines (summary); format: cell-based; conditions: Homo sapiens; summary statement of the conclusions
Procedure: (§6) The cytotoxicity of compounds 1–12 was evaluated in vitro against different cancer cell lines: MCF-7 breast cancer, DU-145 and PC-3 human prostate cancer, and one non-tumor cell line, human colon epithelial cells CCD 841 CoN (CoN). […] Four serial dilutions (from 12.5 to 100 μM) for each sample were evaluated in triplicate.
(§7) The sulforhodamine B assay was used according to the method of Skehan et al.. Briefly, the cells were set up at 3 × 10^3 cells per well of a 96 200 μL well, flat-bottomed, microplate. Cells were incubated at 37 °C in a humidified 5% CO2/95% air mixture and treated with the compounds at different concentrations for 72 h. At the end of drug exposure, cells were fixed with 50% trichloroacetic acid at 4 °C. After washing with water, cells were stained with 0.1% sulforhodamine B (Sigma-Aldrich, St. Louis, MO, USA), dissolved in 1% acetic acid (50 μL/well) for 30 min, and subsequently washed with 1% acetic acid to remove unbound stain. Protein-bound stain was solubilized with 100 μL of 10 mM unbuffered Tris base, and the cell density was determined using a […] plate reader (wavelength 540 nm). Values shown are the mean ± SD of three independent experiments in triplicate. The software used to calculate the IC50 values was GraphPad (GraphPad Software, San Diego, CA, USA).

[11] = tested on: Salmonella strains TA 98, TA 2637, and TA 100; conditions: at highest non-toxic concentration; cited from earlier work
[12] = tested on: DU-145 prostate cancer cell line; test: Cell viability, sulforhodamine B assay; format: cell-based; conditions: Homo sapiens, 72 h exposure, dilutions 12.5 to 100 μM, read-out: Cytotoxicity IC50, DU145
Procedure: as §6
(§8) The experimental cell cultures were obtained from the American Type Culture Collection (Rockville, MD, USA). MCF-7 cells (breast cancer cell line), PC-3 and DU-145 (prostate cancer cell lines), and human colon epithelial cells CCD 841 CoN (non-tumoral cell line) were grown in Dulbecco’s modified Eagle’s medium (DMEM) containing 10% FCS, 100 U/mL penicillin, 100 μg/mL streptomycin, and 1 mM glutamine. Cells were seeded into 96 well microtiter plates in 100 μL at a plating density of 5 × 10^3 cells/well. After 24 h incubation at 37 °C under a humidified 5% CO2 atmosphere to allow cell attachment, the cells were treated with different concentrations of drugs and incubated for 72 h under the same conditions. Stock solutions of compounds were prepared in ethanol and the final concentration of this solvent was kept constant at 1%. Control cultures received 1% ethanol alone.
as §7

[13] = tested on: MCF-7 breast cancer cell line; test: Cell viability, sulforhodamine B assay; format: cell-based; conditions: Homo sapiens, MCF7, 72 h exposure, dilutions 12.5 to 100 μM, read-out: Cytotoxicity IC50, MCF-7
Procedure: as §6, §8, §7

[14] = tested on: PC-3 prostate cancer cell line; test: Cell viability, sulforhodamine B assay; format: cell-based; conditions: Homo sapiens, 72 h exposure, dilutions 12.5 to 100 μM, read-out: Cytotoxicity IC50, PC-3
Procedure: as §6, §8, §7

[15] = Cell viability, sulforhodamine B assay; format: cell-based; conditions: human, CCD 841 CoN colon epithelial cells (non-tumoral cell line), 72 h exposure, dilutions 12.5 to 100 μM, non-tumor cell line, read-out: Cytotoxicity IC50, CoN
Procedure: as §6, §8, §7

Compound: CC1(C)CCC[C@]2(C)[C@@H](C=O)C(C=O)=CC[C@@H]12 [Compound 1, polygodial]
- nuclear changes after Hoechst 33342 staining (PC-3 cells [1]): chromatin condensation and karyopyknosis
- nuclear changes after Hoechst 33342 staining (MCF-7 cells [2]): chromatin condensation and karyopyknosis
- nuclear changes after Hoechst 33342 staining (CoN cells [3]): chromatin condensation and karyopyknosis
- percentage of rhodamine 123 stained cells (PC-3 cells [4]; PC-3, compound 50 µM): 49.1% ± 6.6%
- percentage of rhodamine 123 stained cells (PC-3 cells [4]; PC-3, compound 50 µM, listed as Comp. 1): 111.6 ± 8.9%
- percentage of rhodamine 123 stained cells (PC-3 cells [4]; PC-3, compound 100 µM): 11.9 ± 2.4 %
- percentage of rhodamine 123 stained cells (MCF-7 cells [5]; MCF-7, compound 50 µM): 77.0% ± 6.5%
- percentage of rhodamine 123 stained cells (MCF-7 cells [5]; MCF-7, compound 50 µM, listed as Comp. 1): 77.0 ± 6.5 %
- percentage of rhodamine 123 stained cells (MCF-7 cells [5]; MCF-7, compound 100 µM): 19.4 ± 1.5 %
- percentage of rhodamine 123 stained cells (CoN cells [6]; compound 50 µM): 111.6% ± 8.9%
- percentage of rhodamine 123 stained cells (CoN cells [6]; compound 50 µM, listed as Comp. 1): 49.1 ± 6.6 %
- percentage of rhodamine 123 stained cells (CoN cells [6]; compound 100 µM): 11.8 ± 2.9 %
- morphological changes of cells (PC-3 cells [7]): severely distorted
- morphological changes of cells (MCF-7 cells [8]): severely distorted
- morphological changes of cells (CoN cells [9]): severely distorted
- IC50 [10]: < 200 µM
- mutagenic activity [11]: no mutagenic activity
- IC50 [12]: 71.4 ± 8.5 µM
- IC50 [13]: 93.7 ± 9.1 µM
- IC50 [14]: 89.2 ± 6.8 µM
- IC50 at 72 h [15]: > 200 µM
